# Experimental data published in PMC12974487, “Inhibition of FicD-mediated AMPylation and deAMPylation by isoprenoid diphosphates” (Proceedings of the National Academy of Sciences of the …, 2026).
# Where a chain is given by its changes, count along the chain named. Entries after “also recorded” stand apart in the source; their conditions may differ.
# Tests used:
# FicD^R371S = biological target: T1, FicD^R371S (Homo sapiens, UniProt Q9BVA6, R371S); experiment: AMPylation of Δ26hBiP^T229A by pathogenic variant FicD^R371S; assay type: biochemical; details: indicated concentrations of FPP
# T1 construct: Wild-type FicD (residues 105-458) and all mutants were expressed as N-terminal 6xHis-Sumo fusions; 6xHis-Sumo (N, cleaved yes); made in house; host or cells: Rosetta(DE3) E. coli
# T1 sequence (Q9BVA6 105-458 R371S): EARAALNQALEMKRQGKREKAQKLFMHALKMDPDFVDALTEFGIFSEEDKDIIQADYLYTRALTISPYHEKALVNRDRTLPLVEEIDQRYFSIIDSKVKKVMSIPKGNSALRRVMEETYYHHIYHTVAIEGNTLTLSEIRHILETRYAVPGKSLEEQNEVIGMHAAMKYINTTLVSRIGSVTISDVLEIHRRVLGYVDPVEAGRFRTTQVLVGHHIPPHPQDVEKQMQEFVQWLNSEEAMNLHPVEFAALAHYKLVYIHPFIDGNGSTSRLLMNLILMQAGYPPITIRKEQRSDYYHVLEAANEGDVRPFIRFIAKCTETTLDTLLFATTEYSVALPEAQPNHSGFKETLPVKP
# From the text: (§1) Fig. 5. Crystal structure of FPP inhibitor bound to FicD active site. […] FPP (cyan stick) and Mg^2+ (cyan sphere) in the pocket of FicD shown as APBS electrostatic surface with positive areas in blue, negative in red, and neutral in white (contour level: ±5 kBT/e) (Right). […] (C–E) AMPylation assays of Δ26hBiP^T229A in the presence of the indicated concentration of FPP using the pathogenic human variants (C) FicD^R371S, (D) FicD^R374H and (E) FicD^R374C. AMPylated BiP and Fic were quantified by immunodetection, and total BiP was quantified by CBB. […]
# (§2) Isothermal Titration Calorimetry
# Proteins were dialyzed against 25mM HEPES pH 7.4/100mM KCl/10% glycerol prior to titration. […]
# MgCl2 was added to […]
# (§3) proteins to a final concentration of 4mM. ITC experiments were performed in a Micro-Cal PEAQ-ITC (Malvern Panalytical, Worcestershire, UK) calorimeter with a stirred 206.2 μL reaction cell held at 20 °C. 250μM FPP was titrated into 25uM Δ104hFicL258D with 750rpm stirring. The first injection was 0.5 μL, followed by twenty 1.9 μL injections. […]
# Thermogram and binding figures were plotted in
# For AMPylation assays with FicD and BiP, Δ104FicDWT and Δ26hBiPT229A were combined at a ratio of 1:80 in buffer containing 25mM HEPES pH 7.4, 100mM KCl, 5mM MgCl2, 500μM ATP, 1mM DTT, and small molecule where indicated. Assays with Δ104FicDWT were incubated for 1 hour. […]
# FicD^R374H [1] = biological target: T2, FicD^R374H (Homo sapiens, UniProt Q9BVA6, R374H); experiment: AMPylation of Δ26hBiP^T229A by pathogenic variant FicD^R374H; assay type: biochemical; details: indicated concentrations of FPP
# T2 construct: Wild-type FicD (residues 105-458) and all mutants were expressed as N-terminal 6xHis-Sumo fusions; 6xHis-Sumo (N, cleaved yes); made in house; host or cells: Rosetta(DE3) E. coli
# T2 sequence (Q9BVA6 105-458 R374H): T1 sequence (Q9BVA6 105-458 R371S) with S267R, R270H
# From the text: as §1, §2
# Proteins were dialyzed against 25mM HEPES pH 7.4/100mM KCl/10% glycerol prior to titration.
# as §3, with “Dialyzed proteins were then spun down at 21,000G for 15 minutes at 4C to remove trace insoluble material. The protein concentration was measured spectrophotometrically and then diluted to working concentration with 25mM HEPES pH 7.4/100mM KCl/10% glycerol. MgCl2 was added to proteins” for “proteins”
# Thermogram and binding figures were plotted in […]
# FicD^R374H [2] = biological target: T2, FicD^R374H; experiment: DSF with FicD^R374H variant; assay type: binding
smiles,measurement,setting,value
"CC(C)=CCC/C(C)=C/CC/C(C)=C/COP(=O)(O)OP(=O)(O)O [FPP, farnesyl-pyrophosphate]",FPP inhibition of FicD^R371S AMPylation activity,FicD^R371S,total loss of FPP inhibition
same,FPP inhibition of FicD^R374H mediated AMPylation,FicD^R374H [1],inhibition; also recorded: inhibited
same,binding to R374H variant by DSF (melting curve shift),FicD^R374H [2]; absence of Mg2+,caused shifts in the melting curves
same,binding to R374H variant by DSF (melting curve shift),FicD^R374H [2]; addition of Mg2+,enhanced the binding
